Data taken from ChEMBL document CHEMBL2331519, “Sesquiterpenes from the rhizomes of Curcuma heyneana” (J Nat Prod, 2013).
pIC50: −log10 of the molar value.

What was measured:
[1] = target: T1, Tyrosine-protein phosphatase non-receptor type 1 (Homo sapiens) (UniProt P18031); assay: Inhibition of PTP1B (unknown origin) assessed as decrease in p-nitrophenol production from pNPP substrate at 25 ug/ml after 30 mins by HTS7000 bioassay reader analysis
T1 sequence (whole entry): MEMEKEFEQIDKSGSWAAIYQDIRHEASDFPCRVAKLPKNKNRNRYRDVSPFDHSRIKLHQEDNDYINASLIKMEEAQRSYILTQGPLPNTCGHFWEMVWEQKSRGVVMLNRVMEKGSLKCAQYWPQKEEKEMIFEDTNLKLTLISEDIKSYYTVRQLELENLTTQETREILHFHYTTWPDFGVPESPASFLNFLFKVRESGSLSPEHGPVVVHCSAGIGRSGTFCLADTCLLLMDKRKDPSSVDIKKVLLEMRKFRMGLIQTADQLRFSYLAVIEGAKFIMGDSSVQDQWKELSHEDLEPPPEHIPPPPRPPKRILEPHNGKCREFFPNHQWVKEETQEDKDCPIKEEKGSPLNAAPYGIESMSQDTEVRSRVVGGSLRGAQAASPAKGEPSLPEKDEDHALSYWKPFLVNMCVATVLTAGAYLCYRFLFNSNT

[2] = target: T2, Tyrosine-protein phosphatase non-receptor type 2 (Homo sapiens) (UniProt P17706); assay: (§1) Inhibition of TCPTP (unknown origin) assessed as decrease in p-nitrophenol production from pNPP substrate after 30 mins by HTS7000 bioassay reader analysis
T2 sequence (whole entry): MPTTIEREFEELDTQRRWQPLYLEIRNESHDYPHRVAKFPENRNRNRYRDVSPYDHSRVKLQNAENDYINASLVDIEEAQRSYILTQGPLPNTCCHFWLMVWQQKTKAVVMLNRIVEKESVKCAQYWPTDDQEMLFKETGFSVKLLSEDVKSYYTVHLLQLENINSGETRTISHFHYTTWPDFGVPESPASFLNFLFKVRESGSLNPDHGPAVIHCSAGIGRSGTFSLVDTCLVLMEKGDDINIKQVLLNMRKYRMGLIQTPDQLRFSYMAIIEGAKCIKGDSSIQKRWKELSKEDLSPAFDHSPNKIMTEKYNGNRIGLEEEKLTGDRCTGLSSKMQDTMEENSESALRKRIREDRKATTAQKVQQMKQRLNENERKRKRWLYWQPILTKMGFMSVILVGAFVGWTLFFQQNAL

[3] = target: T3, Tyrosine-protein phosphatase non-receptor type 2 (Homo sapiens, UniProt P17706); assay: as §1
T3 sequence (P17706 whole entry): T2 sequence (whole entry)

[4] = target: T4, Tyrosine-protein phosphatase non-receptor type 1 (Homo sapiens, UniProt P18031); assay: Inhibition of PTP1B (unknown origin) assessed as decrease in p-nitrophenol production from pNPP substrate after 30 mins by HTS7000 bioassay reader analysis
T4 sequence (P18031 whole entry): T1 sequence (whole entry)

inhibition [1] [%]	inhibition [2]	pIC50 [3]	pIC50 [4]	Structure (SMILES)
< 65				C/C1=C/C(=O)/C(C(C)(C)O)=C\C=C(\C)C(=O)CC1
< 65				C=C(C)[C@@H]1CC[C@H](C)[C@]12CC(=C(C)C)C(=O)O2
69.3	Dose-dependent effect	4.57	4.34	CC1=CC(=O)C(=C(C)C)C[C@H]2[C@H]1CC[C@]2(C)O [PROCURCUMENOL]
< 65				C=C(C)[C@@H]1CC[C@@]2(C)OC(=O)C(=C(C)C)C[C@@H]12
< 65				CC1=CC(=O)[C@@]2(C[C@]3(O)[C@@H](C)CC[C@@H]13)OC2(C)C
< 65				C=C(C)[C@H]1CC[C@H](C)[C@]12CC(=C(C)C)C(=O)O2
77.5	Dose-dependent effect	4.21	4.37	CC(C)=C1C[C@@H](O)[C@@](C)(O)CC[C@H](O)/C(C)=C\C1=O [HEYNEANONE A]
< 65				C=C1C[C@]2(O)O[C@@]3(CC2=C(C)C)[C@@H](C)CC[C@@H]13
< 65				CC1=C[C@@]2(O)O[C@@]3(C/C2=C(/C)CO)[C@@H](C)CC[C@@H]13
< 65				C=C(C)[C@@H]1CC[C@H](C)[C@@]12C=C(C(C)(C)O)C(=O)O2
< 65				C=C(C)[C@@H]1CC[C@]2(C)OC(=O)C(=C(C)C)C[C@@H]12
< 65				C=C(C)[C@@H]1CC[C@@H](C)[C@@]12C=C(C(C)(C)O)C(=O)O2
< 65				CC(C)=C1C[C@@H](O)[C@](C)(O)CC[C@H](O)/C(C)=C\C1=O

The remaining lines, values behind:

Structure (SMILES)	inhibition [1] [%]	inhibition [2]	pIC50 [3]	pIC50 [4]
CC(C)=C1C[C@@H](O)[C@@](C)(O)CC[C@@H](O)/C(C)=C\C1=O [HEYNEANONES C]	86.2	Dose-dependent effect	4.44	4.45
C=C1CC[C@H]2C(C)(C)CCC[C@]2(C)[C@H]1/C=C/C(C)=O	88.8	Dose-dependent effect	5.03	4.83
CC(C)=C1C[C@H]2[C@@H](CC[C@]2(C)O)[C@](C)(O)CC1=O	< 65			
CC1=CC(=O)C(=C(C)C)C[C@@H]2[C@@](C)(O)CC[C@]12O [AERUGIDIOL]	87.5	Dose-dependent effect	4.34	4.45
C[C@H]1[C@H](C)CC[C@]2(C(=O)O)CC[C@]3(C)C(=CC[C@@H]4[C@@]5(C)CC[C@H](O)C(C)(C)[C@@H]5CC[C@]43C)[C@H]12 [URSOLIC ACID]	96.7		5.62	
C=C(C)[C@H]1CC[C@@](C)(O)[C@H]2CC[C@](C)(O)[C@H]2C1	< 65			
CC(C)=C1C[C@H]2[C@H](CC[C@]2(C)O)[C@@](C)(O)CC1=O	< 65			
CC(C)=C1C[C@H]2[C@@H](CC[C@]2(C)O)C(CO)=CC1=O	< 65			
C=C(C)[C@@H]1CC[C@](C)(O)[C@H]2CC[C@](C)(O)[C@H]2C1	< 65			
C=C(C)[C@@H]1CC[C@@]2(C)[C@H](O)CC[C@@](C)(O)[C@@H]2C1	< 65			
CC(C)=C1C[C@H]2[C@@H](CC[C@@]2(C)O)[C@@](C)(O)CC1=O	86	Dose-dependent effect	4.80	4.45
CCCCCCCCCCCCCCCC(=O)C1=C(O)[C@@H](CO)OC1=O	99.1		5.29	5.25
C=C1CC[C@H]2C(C)(C)CCC[C@]2(C)[C@H]1C/C=C(\C=O)CC(=O)O [ZERUMIN A]	96.7	Dose-dependent effect	5.13	4.98
